Several values for one entry are separate records, joined by “and”; a condition that tells them apart may be missing. Identical values can stand only once.
Columns and labels:
[1] = test system: T. brucei BSF; assay: Antitrypanosomal activity, alamarBlue assay; format: cell-based, Trypanosoma brucei; conditions: for Selectivity Index (SI) T. brucei: SI = IC50 MRC-5/IC50 parasite; for IC50: bloodstream form, 72 h incubation, alamarBlue, error reported as σ; for antitrypanosomal activity (in words): classification used for docking analysis
Description: The in vitro antitrypanosomal and antileishmanial activity of the BODIPY derivatives were evaluated on the bloodstream form (BSF) of T. brucei and the promastigote form of L. major parasites. The toxicity of the compounds was determined after 72 h of incubation using the alamarBlue assay (for T. brucei) and the MTT assay (for L. major). The cytotoxicity of the compounds on a healthy human cell line (human lung fibroblast, MRC-5) was also determined after 72 h of incubation using the alamarBlue assay. The data were expressed as the half maximal inhibitory concentration (IC50). The selectivity index (SI) of each derivative was calculated by dividing the IC50 of MRC-5 cells into the IC50 of T. brucei or L. major.
T. brucei (Lister 427, antigenic type MiTat 1.2, clone 221a, bloodstream forms, “single marker” S427 (S16)) were cultured at 37 °C, 5% CO2 in HMI-9 medium supplemented with 10% heat-inactivated fetal bovine serum (hiFBS, Invitrogen, Carlsbad, CA, USA), as previously described.
The antitrypanosomal activity of the BODIPY derivatives was determined by the alamarBlue® assay (ThermoFisher Scientific, Waltham, MA, USA). The stock solutions of the compounds were prepared in DMSO and the final DMSO percentage in each well was adjusted to be less than 1%. A total of 2 × 10^4 parasites per mL were incubated at 37 °C, 5% CO2 in 96-well plates (50 μL/well) alone or in the presence of an increasing concentration of compounds for 72 h. A total of 20 μL of resazurin solution (110 ng/mL) was then added to each well, and the parasites were incubated for 4 h at 37 °C. Finally, cells were lysed with 50 μL per well of SDS 3%. The plate was incubated at 37 °C for an extra hour and then, fluorescence intensity was measured with an Infinite F200 plate reader (Tecan Austria, GmbH, Grödig, Austria), exciting at 550 nm and recording the emission at 590 nm. The results are expressed as the concentration of a compound that reduces cell growth by 50% versus untreated control cells (IC50). Data are presented as the average of at least three independent measurements, all conducted in triplicate conditions.

[2] = test system: L. major promastigotes; assay: Antileishmanial activity, MTT-based assay; format: cell-based, Leishmania major; conditions: for Selectivity Index (SI) L. major: SI = IC50 MRC-5/IC50 parasite; for IC50: promastigotes, 72 h incubation, MTT, error reported as σ; for antileishmanial activity (in words): classification used for docking analysis
Description: The in vitro antitrypanosomal and antileishmanial activity of the BODIPY derivatives were evaluated on the bloodstream form (BSF) of T. brucei and the promastigote form of L. major parasites. The toxicity of the compounds was determined after 72 h of incubation using the alamarBlue assay (for T. brucei) and the MTT assay (for L. major). The cytotoxicity of the compounds on a healthy human cell line (human lung fibroblast, MRC-5) was also determined after 72 h of incubation using the alamarBlue assay. The data were expressed as the half maximal inhibitory concentration (IC50). The selectivity index (SI) of each derivative was calculated by dividing the IC50 of MRC-5 cells into the IC50 of T. brucei or L. major. L. major (MHOM/IL/80/Friedlin) promastigotes were cultured at 28 °C, 5% CO2 in modified RPMI-1640 medium (Invitrogen, Carlsbad, CA, USA) supplemented with 10% hiFBS [49]. Parasites were maintained in culture in their […] growth phase (below 2 million parasites per mL for T. brucei and 10 million parasites per mL for L. major). The antileishmanial activity of the BODIPY derivatives was assessed using an MTT-based assay (Sigma-Aldrich, St. Louis, MO, USA). The stock solutions of the compounds were prepared in DMSO and the final DMSO percentage in each well was adjusted to be less than 1%. A total of 4 × 10^6 parasites per mL were incubated at 28 °C in 96-well plates (50 μL/well) alone or in the presence of an increasing concentration of compounds DMSO for 72 h. A total of 10 μL of MTT (5 mg/mL) were added to each well and parasites were incubated for 4 h at 28 °C. Finally, cells were lysed with 50 μL/well of 20% SDS. The plate was incubated at 37 °C for an extra hour and then, absorbance was measured at the Infinite F200 plate reader (TECAN Austria, GmbH, Grödig, Austria) at a wavelength of 540 nm. The IC50 was calculated as described above. Data are presented as the average of at least three independent measurements, all conducted in triplicate conditions.

[3] = test system: MRC-5 cell line (human lung fibroblast); assay: Cytotoxicity, alamarBlue assay; format: cell-based; conditions: 72 h incubation, error reported as σ
Description: The in vitro antitrypanosomal and antileishmanial activity of the BODIPY derivatives were evaluated on the bloodstream form (BSF) of T. brucei and the promastigote form of L. major parasites. The toxicity of the compounds was determined after 72 h of incubation using the alamarBlue assay (for T. brucei) and the MTT assay (for L. major). The cytotoxicity of the compounds on a healthy human cell line (human lung fibroblast, MRC-5) was also determined after 72 h of incubation using the alamarBlue assay. The data were expressed as the half maximal inhibitory concentration (IC50). The selectivity index (SI) of each derivative was calculated by dividing the IC50 of MRC-5 cells into the IC50 of T. brucei or L. major. MRC-5 cell line (human lung fibroblast) was grown in a monolayer at 37 °C, 5% CO2 in DMEM medium (1 g/L glucose) supplemented with 10% hiFBS, 100 U/mL penicillin, […] and 2 mM L-glutamine. Cytotoxicity was measured in MRC-5 through alamarBlue® assay (ThermoFisher Scientific). The stock solutions of the compounds were prepared in DMSO and the final DMSO percentage in each well was adjusted to be less than 1%. A total of 5 × 10^3 cells per mL were seeded in 96-well plates (100 μL/well) with 24 h of incubation time before compound addition at 37 °C, 5% CO2. Then, the compounds were added at increasing concentrations (from 0 to 100 μM) and the plates were incubated for 72 h. A total of 20 μL of resazurin solution (110 ng/mL) was added to each well and cells were incubated for 4 h. Then, cells were lysed with 50 μL/well of 3% SDS. The plate was incubated at 37 °C for an extra hour and then, the fluorescence intensity was measured at the Infinite F200 plate reader (TECAN Austria, GmbH), exciting at 550 nm and recording the emission at 590 nm. The results are expressed as the concentration of a compound that reduces cell growth by 50% versus untreated control cells (IC50). Data are presented as the average of at least three independent measurements, all conducted in triplicate conditions.

[4] = MRC5, healthy human lung fibroblasts

| IC50 [1] [µM] | IC50 [2] [µM] | IC50 ([1]; Trypanosoma brucei) [µM] | IC50 ([2]; Leishmania major) [µM] | Compound | Selectivity Index (SI) T. brucei [1] | Selectivity Index (SI) L. major [2] | IC50 ([3]; healthy human lung fibroblasts) | antitrypanosomal activity (in words) [1] | antileishmanial activity (in words) [2] | IC50 [3, 4] [µM] |
| --- | --- | --- | --- | --- | --- | --- | --- | --- | --- | --- |
| 36.9 ± 7.43 | 64.5 ± 8.43 |  |  | CC1=CC(C)=[N+]2C1=C(c1cccs1)c1c(C)cc(C)n1[B-]2(F)F [Compound 1f] | 1.57 | 0.90 | 58 ± 4.76 µM |  |  |  |
| 12.4 ± 4.02 | 19.7 ± 3.21 |  |  | CC1=C(C=O)C(C)=[N+]2C1=C(c1cccs1)c1c(C)cc(C)n1[B-]2(F)F [Compound 2f] | 6.54 | 4.10 | 80.9 ± 1.06 µM | present antitrypanosomal activity | does not present antileishmanial activity |  |
| 61.5 ± 10.9 | 92.2 ± 10 |  |  | CC1=CC(C)=[N+]2C1=C(c1cc3sccc3s1)c1c(C)cc(C)n1[B-]2(F)F [Compound 1i] | 1.58 | 1.05 | 96.8 ± 4.5 µM |  |  |  |
| 38.2 ± 7.29 | 19.7 ± 3.94 |  |  | CC1=CC(C)=[N+]2C1=C(c1ccccc1)c1c(C)cc(C)n1[B-]2(F)F [Compound 1a] | 1.76 | 3.42 | 67.2 ± 4.39 µM |  |  |  |
| 15.2 ± 0.86 | 20.7 ± 1.79 |  |  | CCn1c2ccccc2c2cc(C3=C4C(C)=C(C=O)C(C)=[N+]4[B-](F)(F)n4c(C)cc(C)c43)ccc21 [Compound 2e] | 5.89 | 4.33 | 89.7 ± 9.08 µM |  |  |  |
|  |  | 38.3 ± 0.93 | > 100 | CC1=C(C=O)C(C)=[N+]2C1=C(c1ccc(N(c3ccccc3)c3ccc(C=O)cc3)cc1)c1c(C)cc(C)n1[B-]2(F)F [Compound 3d] | 2.28 | <0.87 |  |  |  | 87.1 ± 3.28 |
| 74.7 ± 6.93 | > 100 |  |  | CC1=C(C=O)C(C)=[N+]2C1=C(c1ccccc1)c1c(C)cc(C)n1[B-]2(F)F [Compound 2a] | 1.22 | <0.91 | 91.33 ± 0.66 µM |  |  |  |
| 6.17 ± 2.35 | 10.3 ± 1.59 |  |  | CC1=C(C=O)C(C)=[N+]2C1=C(c1c3ccccc3cc3ccccc13)c1c(C)cc(C)n1[B-]2(F)F [Compound 2c] | 11 and 10.84 | 6.47 | 66.9 ± 7.65 µM | present antitrypanosomal activity | present antileishmanial activity |  |
| 22.7 ± 1.88 | > 100 |  |  | CC1=C(C=O)C(C)=[N+]2C1=C(c1ccc(N(c3ccccc3)c3ccccc3)cc1)c1c(C)cc(C)n1[B-]2(F)F [Compound 2d] | 3.56 | <0.81 | 81.1 ± 3.9 µM |  |  |  |
|  |  | 14.2 ± 0.31 | 3.13 ± 0.13 | CC1=C(C=O)C(C)=[N+]2C1=C(c1c3ccccc3cc3ccccc13)c1c(C)c(C=O)c(C)n1[B-]2(F)F [Compound 3c] | 1.53 | 6.91 |  | present antitrypanosomal activity | present antileishmanial activity | 21.7 ± 3.46 |
| 27.9 ± 5.42 | 84.39 ± 0.32 |  |  | CC1=CC(C)=[N+]2C1=C(c1ccc(N(C)C)c3ccccc13)c1c(C)c(-c3nc4ccccc4[nH]3)c(C)n1[B-]2(F)F [Compound 3b] | >3.59 | >1.18 | > 100 µM |  |  |  |
| 18.2 ± 3.63 | 4.84 ± 1.56 |  |  | CC1=CC(C)=[N+]2C1=C(c1ccc(N(C)C)c3ccccc13)c1c(C)cc(C)n1[B-]2(F)F [Compound 1b] | 4.21 | 16 and 15.93 | 76.8 ± 5.33 µM |  | present antileishmanial activity |  |
| 5.5 ± 0.21 | > 100 |  |  | CC1=C(c2nc3ccccc3[nH]2)C(C)=[N+]2C1=C(c1ccccc1)c1c(C)cc(C)n1[B-]2(F)F [Compound 3a] | 11.38 |  | 63 µM and 62.6 µM | present antitrypanosomal activity |  |  |

Reference: PMC11085077, “Designing Antitrypanosomal and Antileishmanial BODIPY Derivatives: A Computational and In Vitro Assessment” (Molecules, 2024)
